Experimental data as given in patent publication US10501780B2, “Compositions for in situ nucleic acid analysis” (APPLIED BIOSYSTEMS, LLC, priority 2007, dated 2019).
*: point of attachment. MeOSuc = COC(=O)CCC(=O)*; CH2Cl = ClC*

Assays:
proteinase K (PK) = proteinase K (PK) (Parengyodontium album, UniProt P06873); assay type: biochemical; conditions: PK 600 ug/ml, increasing inhibitor, 3 min; RNaseALERT fluorescence at 520 nm
Procedure: PK (600 ug/ml) was mixed with increasing amounts of test inhibitor and allowed to react for 3 min at room temperature. RNase A was added and the mixture was incubated for 10 min. The RNase A was mixed with RNaseALERT™ substrate (AMBION®, Catalog No. AM1964) and incubated for 10 min. The fluorescence of the RNaseALERT™ substrate was measured at 520 nm.

[1] = Compatibility of protease inhibitors with two-step RT-PCR; assay type: biochemical
From the text: The samples were reverse transcribed using a Reverse Transcriptase Kit (Applied Biosystems Catalog No. 4368813) and the resulting cDNA was subjected to real time PCR with the TAQMAN® Universal PCR Master Mix (Applied Biosystems Catalog No. 4304437).

[2] = Compatibility of protease inhibitors with 1-step RT-PCR; conditions: one-step reaction
proteinase K = proteinase K (Parengyodontium album, UniProt P06873); assay: AAPV concentration for proteinase K inhibition in lysis solution (RNase A, Bioanalyzer protein chip); assay type: biochemical; conditions: PK 100 ug/ml
Procedure: For one-step RT-PCR, AAPV (SEQ ID NO:1) is effective. To determine the concentration of AAPV (SEQ ID NO:1) for inhibition of proteinase K in the lysis solution, 50 uL lysis solution was mixed with 5 uL of stop solution with varying amounts of AAPV (SEQ ID NO:1) (11 mM Tris, 44 mM EGTA, […] AAPV (SEQ ID NO:1)) and incubated for 10 min. RNase A (15 ug) was added to each sample and the samples were held for 10 min at room temperature. The reaction mixture was heated for 30 min at 95° C. and analyzed using a Protein 50 Bioanalyzer chip (2100 Bioanalyzer, Agilent, Santa Clara, Calif.). The Bioanalyzer protein gel data are provided by FIG. 7 in which the lower marker is at about 3.5 kDa; the next higher prominent bands are system peaks at about 4.0-4.5 kDa; intact RNase A is at about 20 kDa; and proteinase K is at about 35 kDa. Lanes are labeled as follows: (L) Ladder, (1) RNase Only, (2) PK Only, (3)-(8) AAPV (SEQ ID NO:1) at 1 mM (3), 0.75 mM (4), 0.5 mM (5), 0.25 mM (6), 0.125 mM (7), and 0 mM (8).

DNase I [3] = test system: DNase I
Procedure: The ability of EGTA to inhibit DNase I activity and the limiting amount of EGTA that could be used in RT-PCR was determined. EGTA (88 mM; final conc. of 8 mM) was added to the stop solution for DNase I inactivation. The pH of the stop solution was 8.0 for AAPV (SEQ ID NO:1) inactivation of proteinase K. Tris-base with HCl as needed for pH adjustment (11 mM; final conc of 1 mM) was used for buffering the solution.

[4] = molecular target: T1, AMPLITAQ GOLD® DNA polymerase (Thermus aquaticus, UniProt P19821); assay: Effect of surfactants on qPCR (TAQMAN Universal PCR Master Mix, PPIA assay); assay type: biochemical; conditions: even at 1% (0.1% final in PCR)
T1 construct: purchased Applied Biosystems 4304437
Procedure: The effects of surfactants on PCR reactions were then studied. qPCR (20 uL) reactions with 4 ng Human Universal reference liver cDNA (Catalog No. 780622; […]®, La Jolla, Calif.) were performed by adding 2 uL of surfactant resuspended in 10 mM Tris pH 7.5 at concentrations of 0.0%, 0.01%, 0.03%, 0.1%, 0.3%, and 1%. qPCR reactions were carried out using the TAQMAN® Universal PCR Master Mix (Applied Biosystems Catalog No. 4304437), and qRT-PCR reactions were carried out using the TAQMAN® One-Step RT-PCR Master Mix (Applied Biosystems Catalog No. 4309169). TAQMAN® gene expression assays were used to determine expressions levels of genes PPIA (peptidylprolyl isomerase A (cyclophilin A)) and B2M (β-2-microglobulin).
ROX™ background fluorescence was not affected.

HeLa cells = assay: Lysis efficacy of surfactants by propidium iodide staining; assay type: cell-based, H. sapiens; conditions: PI staining, 10^5 HeLa cells; for effectiveness at lysing cells: concentrations up to 3%
Procedure: Lysis efficacies of seven surfactants were tested by PI staining (DNA fluorochrome propidium iodide stain for viability, 1 mg/ml) of 10^5 HeLa cells treated with 0.01% to 5% surfactant. The buffer was 10 mM Tris pH 7.5, 2.5 mM MgCl2, 0.5 mM CaCl2.

DNase I [5] = conditions: 1 mM EDTA in Buffer A; 0.2 U DNase I
Procedure: The 590 nm fluorescence intensity with 544 nm excitation was measured with time.

[6] = concentrations up to 2 mM in the stopped mixture (up to 400 uM in an RT reaction)

Sequence of proteinase K (PK) (P06873 106-384): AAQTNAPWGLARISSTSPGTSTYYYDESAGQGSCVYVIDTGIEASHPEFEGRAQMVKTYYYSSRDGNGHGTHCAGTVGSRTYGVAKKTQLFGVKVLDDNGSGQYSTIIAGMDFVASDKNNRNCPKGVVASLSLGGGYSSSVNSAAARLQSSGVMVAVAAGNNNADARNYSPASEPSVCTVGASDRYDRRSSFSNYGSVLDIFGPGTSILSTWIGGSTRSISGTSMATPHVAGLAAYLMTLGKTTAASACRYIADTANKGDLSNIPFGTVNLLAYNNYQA
Sequence of proteinase K (P06873 106-384): as above
T1 sequence (P19821 whole entry): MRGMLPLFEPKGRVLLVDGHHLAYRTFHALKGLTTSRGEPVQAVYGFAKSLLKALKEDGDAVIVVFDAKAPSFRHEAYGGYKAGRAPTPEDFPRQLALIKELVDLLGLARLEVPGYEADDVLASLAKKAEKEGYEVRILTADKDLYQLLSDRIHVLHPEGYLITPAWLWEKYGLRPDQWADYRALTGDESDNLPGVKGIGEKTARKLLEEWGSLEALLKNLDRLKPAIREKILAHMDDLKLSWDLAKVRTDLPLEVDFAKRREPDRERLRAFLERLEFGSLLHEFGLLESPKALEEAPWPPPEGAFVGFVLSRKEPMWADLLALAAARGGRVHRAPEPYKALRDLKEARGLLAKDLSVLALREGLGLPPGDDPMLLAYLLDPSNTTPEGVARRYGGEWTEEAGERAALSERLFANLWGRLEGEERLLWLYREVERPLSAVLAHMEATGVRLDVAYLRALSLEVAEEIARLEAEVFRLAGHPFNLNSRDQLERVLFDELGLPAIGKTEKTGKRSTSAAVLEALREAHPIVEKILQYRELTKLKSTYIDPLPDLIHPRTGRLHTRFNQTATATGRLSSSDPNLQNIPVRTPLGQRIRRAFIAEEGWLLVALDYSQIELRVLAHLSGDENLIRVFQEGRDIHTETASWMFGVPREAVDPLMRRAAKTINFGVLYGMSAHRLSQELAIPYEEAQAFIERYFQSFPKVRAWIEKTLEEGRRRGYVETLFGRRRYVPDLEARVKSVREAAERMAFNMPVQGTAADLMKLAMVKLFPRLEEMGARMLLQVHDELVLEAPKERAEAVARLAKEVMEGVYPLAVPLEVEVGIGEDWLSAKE

N=C(N)c1ccccc1 [benzamidine]
inhibition of PK at room temperature (proteinase K (PK)): did not show inhibition

methoxysuccinyl-Ala-Ala-Pro-Val-chloromethyl ketone (MeOSuc-AAPV-CH2Cl)
RT-PCR inhibition (two-step) [1, 6]: Minimal RT-PCR inhibition
compatibility with 1-step RT-PCR [2]: compatible
inhibition of PK at room temperature (proteinase K (PK)): capable of inhibiting PK
lowest concentration inhibiting PK (proteinase K): ≥ 0.25 mM
lowest concentration inhibiting PK (proteinase K; listed as Methoxysuccinyl-AAPV-chloromethyl ketone): ≥ 0.75 mM

methoxysuccinyl-Ala-Ala-Pro-Ala-chloromethyl ketone (MeOSuc-AAPA-CH2Cl)
inhibition of PK at room temperature (proteinase K (PK)): did not show inhibition

O=C(O)CN(CCOCCOCCN(CC(=O)O)CC(=O)O)CC(=O)O [EGTA, ethylene glycol tetraacetic acid]
concentration inhibiting DNase I (DNase I [3]): ≥ 4 mM

octylphenol ethoxylate having an average of 7.5 ethoxylate groups [TRITON X-114™]
effect on qPCR (Ct) [4]: no effect

octylphenol ethoxylate having an average of 9.5 ethoxylate groups [TRITON X-100™]
concentrations effective for lysis (HeLa cells; 0.01% to 5% surfactant tested, 1% TRITON X-100 as full lysis control): ≥ 0.05%

O=S(=O)(F)Cc1ccccc1 [PMSF, phenylmethylsulfonylfluoride]
RT-PCR inhibition (two-step) [1, 6]: Minimal RT-PCR inhibition
compatibility with 1-step RT-PCR [2]: showed RT-PCR inhibition

O=C(O)CN(CCN(CC(=O)O)CC(=O)O)CC(=O)O [EDTA, ethylenediamine tetraacetic acid]
effect on DNase I activity (DNaseALERT substrate fluorescence) (DNase I [5]): inhibitory effect

TWEEN™ 80
effectiveness at lysing cells (HeLa cells): not effective

TWEEN™ 20
effectiveness at lysing cells (HeLa cells): not effective

NCCc1ccc(S(=O)(=O)F)cc1 [AEBSF, 4-(2-aminoethyl) benzenesulfonyl fluoride]
inhibition of PK at room temperature (proteinase K (PK)): did not show inhibition

TWEEN™ 40
effectiveness at lysing cells (HeLa cells): not effective

CC(=O)N[C@@H](CC(C)C)C(=O)N[C@@H](CC(C)C)C(=O)N[C@H](C=O)CCCNC(=N)N [leupeptin, Ac-Leu-Leu-Arg-CHO]
inhibition of PK at room temperature (proteinase K (PK)): capable of inhibiting PK

aprotinin
RT-PCR inhibition (two-step) ([1]; all concentrations tested): inhibitory
compatibility with 1-step RT-PCR [2]: showed RT-PCR inhibition
inhibition of PK at room temperature (proteinase K (PK)): capable of inhibiting PK

N-tosyl-L-lysine-chloromethyl ketone [TLCK]
inhibition of PK at room temperature (proteinase K (PK)): did not show inhibition

B1: N-acetyl-Eglin C: Catalog No. E7888, Sigma-Aldrich; inhibitor of chymotrypsin, subtilisin, leukocyte elastase and cathepsin G (protein)
chain: Ac-TEFGSELKSFPEVVGKTVDQAREYFTLHYPQYDVYFLPEGSPVTLDLRYNRVRVFYNPGTNVVNHVPHVG
inhibition of PK at room temperature (proteinase K (PK)): did not show inhibition
